Results from patent publication US6239171A, “Tocotrienols and tocotrienol-like compounds and methods for their use” (Lipogenics, Inc., priority 1998, dated 2001).

Tests used:
[1] = test system: cholesterol 7α-hydroxylase; experiment: Cholesterol 7α-hydroxylase activity in isolated chicken hepatocytes; format: cell-based
Method: (§1) This study measured the effects of three tocotrienols isolated from rice bran on cholesterol-related enzyme activity in hepatocytes isolated from livers of 8-week old female chickens. The chickens were fed the chick mash diet for 8 weeks. They were then fasted for 40 hours and finally refed for 48 hours before sacrifice. The hepatocytes were then prepared following standard methods.
(§2) Each compound was isolated from TRF using the following protocol: A bond Elute amine column was equilibrated with 2 ml hexane. 10 mg of TRF (dissolved in 0.5 ml hexane) was bound to the amine column. The column was washed with 1 ml of hexane, then with 1 ml of 3% isopropanol in hexane. P-21 and P-25 were eluted off the column with 5% isopropanol in hexane. Then using 10% isopropanol in hexane, the impurity P-20 was eluted. α-tocotrienol was also tested.

chickens [2] = experiment: Serum cholesterol, apolipoproteins, triglycerides and glucose in chickens fed supplemented diets; format: in vivo, chicken; details: control diet + 50 ppm, 4 weeks
Text: All assays conducted on chicken or swine serum were done following the protocols described in A. A. Qureshi et al., "Lowering Of Serum Cholesterol In Hypercholesterolemic Humans By Tocotrienols" (Palmvitee), Am. J. Clin. Nutr., 53, pp. 1021S-26S (1991). All enzymatic assays were done following the protocols described in A. A. Qureshi et al., "Effects of Cereals and Culture Filtrate of Trichoderma viride on Lipid Metabolism of Swine", Lipids, 17, pp. 924 (1982). Plasma insulin, glucagon and TNF levels were measured using radioinnumoassay kits from Ventrex Laboratories, Inc. (Portland, Me.), ICN Biomedicals, Inc. (Costa Mesa, Calif.) and Genzyme Corp. (Cambridge, Mass.), respectively. […]
Each group of 6 chickens (6-week old female while leghorn) was administered the chick mash diet described in Example 5, supplemented with one of three different amounts of waxes (sterols), 50 ppm of TRF (prepared as in Example 2) or 5% equivalent of the methanol insoluble fraction Louisiana rice bran oil. […] The birds were fasted for a period of 14 hours prior to sacrifice (at 0800 hours). […]

chickens [3] = experiment: Antibody titers to sheep red blood cells in chickens; format: in vivo, chicken; details: control diet + 50 ppm, 4 weeks, sheep red blood cells i.p.
Method: The model for this study was 6-week old female white leghorn chickens. Each group of 12 chickens was fed an unsupplemented chicken diet or a control diet supplemented with 50 ppm of a tocotrienol or 100 ppm of a commercially available hypercholesterolemic agent (Geraniol or Lovastatin). […] The chickens were fed over a period of 4 weeks, then the blood was drawn. The antibody response was determined by injecting the chickens i.p. with 0.5 ml of a 5% suspension of sheep red blood cells (RBCs) in PBS (v/v) which were previously washed three times. […] Relative IgG levels were determined by using 2-mercaptoethanol preincubation for 30 min. The relative IgM levels were calculated by subtracting the IgG antibody levels from total antibody levels. All antibody levels are expressed as the log base 2 of the highest titer that was needed to hemagglutinate an equal volume of 0.5% RBC suspension.

HMG-CoA reductase [4] = molecular target: T1, HMG-CoA reductase (Homo sapiens, UniProt P04035); experiment: HMG-CoA reductase activity in isolated chicken hepatocytes; format: cell-based
T1 construct: hepatocytes isolated from livers of 8-week old female chickens; endogenous in cells; host or cells: primary chicken hepatocytes
T1 sequence (P04035 1-888): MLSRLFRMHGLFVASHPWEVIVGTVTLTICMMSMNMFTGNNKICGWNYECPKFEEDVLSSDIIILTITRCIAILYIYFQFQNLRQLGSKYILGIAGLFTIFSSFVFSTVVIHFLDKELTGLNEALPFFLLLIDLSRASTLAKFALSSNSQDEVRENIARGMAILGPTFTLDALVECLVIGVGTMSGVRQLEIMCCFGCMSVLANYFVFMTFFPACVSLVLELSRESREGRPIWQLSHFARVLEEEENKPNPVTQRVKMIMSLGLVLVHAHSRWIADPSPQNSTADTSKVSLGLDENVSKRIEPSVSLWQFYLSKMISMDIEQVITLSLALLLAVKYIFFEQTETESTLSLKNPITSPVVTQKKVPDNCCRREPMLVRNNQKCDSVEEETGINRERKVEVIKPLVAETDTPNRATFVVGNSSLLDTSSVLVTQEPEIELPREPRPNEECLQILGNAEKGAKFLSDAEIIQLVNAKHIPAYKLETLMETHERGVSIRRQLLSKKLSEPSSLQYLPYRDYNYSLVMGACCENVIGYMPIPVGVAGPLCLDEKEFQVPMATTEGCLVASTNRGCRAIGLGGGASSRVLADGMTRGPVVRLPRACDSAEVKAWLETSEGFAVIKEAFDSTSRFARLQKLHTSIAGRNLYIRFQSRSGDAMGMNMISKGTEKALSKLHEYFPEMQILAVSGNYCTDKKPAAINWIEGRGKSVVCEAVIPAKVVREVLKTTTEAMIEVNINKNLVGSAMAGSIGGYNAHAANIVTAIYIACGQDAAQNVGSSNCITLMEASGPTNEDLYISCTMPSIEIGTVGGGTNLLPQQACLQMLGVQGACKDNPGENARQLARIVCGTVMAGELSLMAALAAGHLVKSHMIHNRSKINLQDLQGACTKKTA
Method: as §1, §2
We next measured the effects of various tocotrienols and tocotrienol-like compounds isolated from rice bran on the activity of HMG-CoA reductase. 20.0 g of stabilized rice bran was extracted with 200.0 ml of methanol to remove various UV absorbing impurities and tocotrienols (6.7 mg total). This step was repeated four times. The remaining residue was dried under vacuum in a desiccator and then heated at 180° C. for 2 hours under 30 psi pressure. Then the dried residue was extracted again with 200.0 ml methanol (3.4 mg). […]

Fatty Acid Synthase = molecular target: T2, Fatty Acid Synthase (Gallus gallus, UniProt P12276); experiment: Fatty acid synthase activity in isolated chicken hepatocytes; format: cell-based
T2 construct: hepatocytes isolated from livers of 8-week old female chickens; endogenous in cells; host or cells: primary chicken hepatocytes
T2 sequence (P12276 2-2512 limits assumed): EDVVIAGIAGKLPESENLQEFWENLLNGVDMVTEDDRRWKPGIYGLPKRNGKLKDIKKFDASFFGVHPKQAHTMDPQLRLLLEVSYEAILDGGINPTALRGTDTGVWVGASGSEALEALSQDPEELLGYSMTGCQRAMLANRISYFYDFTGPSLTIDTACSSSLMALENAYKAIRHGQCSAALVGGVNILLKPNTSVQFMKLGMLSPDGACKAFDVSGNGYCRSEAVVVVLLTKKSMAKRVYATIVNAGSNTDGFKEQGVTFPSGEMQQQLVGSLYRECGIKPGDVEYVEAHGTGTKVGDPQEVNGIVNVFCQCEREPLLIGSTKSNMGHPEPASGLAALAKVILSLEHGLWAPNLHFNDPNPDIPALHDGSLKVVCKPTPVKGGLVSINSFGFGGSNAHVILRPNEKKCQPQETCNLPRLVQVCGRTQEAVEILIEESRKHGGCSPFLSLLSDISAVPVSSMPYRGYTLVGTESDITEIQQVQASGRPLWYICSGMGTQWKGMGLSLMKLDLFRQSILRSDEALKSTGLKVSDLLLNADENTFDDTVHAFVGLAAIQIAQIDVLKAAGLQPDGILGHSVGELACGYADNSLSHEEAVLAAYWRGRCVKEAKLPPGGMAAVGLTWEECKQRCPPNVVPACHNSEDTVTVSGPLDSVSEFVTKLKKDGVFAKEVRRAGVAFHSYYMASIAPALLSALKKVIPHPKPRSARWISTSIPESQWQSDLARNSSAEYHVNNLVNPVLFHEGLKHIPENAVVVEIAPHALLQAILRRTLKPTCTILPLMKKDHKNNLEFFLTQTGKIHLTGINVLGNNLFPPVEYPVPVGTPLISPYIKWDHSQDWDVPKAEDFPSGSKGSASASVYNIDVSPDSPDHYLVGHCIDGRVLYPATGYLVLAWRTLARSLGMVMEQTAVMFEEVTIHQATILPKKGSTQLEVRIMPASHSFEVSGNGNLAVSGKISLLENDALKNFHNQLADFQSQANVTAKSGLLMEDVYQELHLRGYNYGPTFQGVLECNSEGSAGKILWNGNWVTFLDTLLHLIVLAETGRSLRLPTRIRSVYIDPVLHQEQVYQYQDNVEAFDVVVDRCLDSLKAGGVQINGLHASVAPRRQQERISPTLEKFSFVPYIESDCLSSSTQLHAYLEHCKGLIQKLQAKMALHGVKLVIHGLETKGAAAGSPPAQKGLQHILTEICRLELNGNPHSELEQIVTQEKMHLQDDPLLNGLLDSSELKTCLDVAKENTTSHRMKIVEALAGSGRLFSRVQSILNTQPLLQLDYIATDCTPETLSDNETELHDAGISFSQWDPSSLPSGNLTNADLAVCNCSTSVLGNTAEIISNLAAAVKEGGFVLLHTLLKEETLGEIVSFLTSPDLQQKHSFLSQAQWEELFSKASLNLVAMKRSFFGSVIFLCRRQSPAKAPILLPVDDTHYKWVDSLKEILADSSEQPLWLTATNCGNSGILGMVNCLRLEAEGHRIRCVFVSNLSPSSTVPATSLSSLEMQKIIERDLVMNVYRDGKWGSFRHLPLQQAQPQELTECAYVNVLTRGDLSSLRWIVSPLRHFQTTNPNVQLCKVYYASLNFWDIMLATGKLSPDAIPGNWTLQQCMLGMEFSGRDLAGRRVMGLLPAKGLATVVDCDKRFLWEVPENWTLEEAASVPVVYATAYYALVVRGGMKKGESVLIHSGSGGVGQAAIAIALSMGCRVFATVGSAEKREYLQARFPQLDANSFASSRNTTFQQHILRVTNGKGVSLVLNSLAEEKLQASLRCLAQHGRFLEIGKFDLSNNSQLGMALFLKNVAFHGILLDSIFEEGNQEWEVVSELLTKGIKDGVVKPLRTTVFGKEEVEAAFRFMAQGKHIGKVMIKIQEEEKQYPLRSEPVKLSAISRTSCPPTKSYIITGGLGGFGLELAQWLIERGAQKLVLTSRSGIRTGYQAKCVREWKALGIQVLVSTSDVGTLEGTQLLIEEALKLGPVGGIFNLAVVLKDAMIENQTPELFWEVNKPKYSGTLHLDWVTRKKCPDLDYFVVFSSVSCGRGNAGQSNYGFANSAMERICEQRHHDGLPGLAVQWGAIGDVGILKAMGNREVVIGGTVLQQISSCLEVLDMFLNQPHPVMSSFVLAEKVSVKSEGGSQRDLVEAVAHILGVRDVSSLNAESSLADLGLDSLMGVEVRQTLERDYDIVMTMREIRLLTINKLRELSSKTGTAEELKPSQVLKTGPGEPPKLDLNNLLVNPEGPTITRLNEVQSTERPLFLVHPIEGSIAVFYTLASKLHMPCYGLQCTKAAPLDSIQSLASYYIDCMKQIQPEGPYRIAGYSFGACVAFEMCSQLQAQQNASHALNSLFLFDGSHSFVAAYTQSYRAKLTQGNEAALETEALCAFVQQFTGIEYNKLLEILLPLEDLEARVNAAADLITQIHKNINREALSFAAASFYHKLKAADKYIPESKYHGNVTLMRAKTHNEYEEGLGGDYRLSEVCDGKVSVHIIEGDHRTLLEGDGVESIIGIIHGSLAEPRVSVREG
Method: as §1, §2

chickens [5] = experiment: Plasma thromboxane B2 and platelet factor 4 in chickens fed supplemented diets; format: in vivo, chicken; details: control diet + 50 ppm, 4 weeks
Text: We next measured the effects of TRF and its components on serum levels of apolipoprotein (a)1, apolipoprotein B, triglycerides and glucose and the plasma levels of thromboxane B2 and platelet factor 4.

[6] = test system: cholesterol 7α-hydroxylase; experiment: Hepatic cholesterol 7α-hydroxylase activity in chickens fed supplemented diets; format: in vivo, chicken; details: control diet + 50 ppm, 4 weeks
Method: (§3) This example measured the effects of the TRF and its components on the hepatic enzymatic activity of HMG-CoA reductase and cholesterol 7α-hydroxylase. […] The amount of feed consumed ranged from 11.19-11.60 g per chicken and the feeding period was 4 weeks. The birds were fasted for a period of 36 hours and refed for 48 hours prior to sacrifice (at 0800 hours).

HMG-CoA reductase [7] = molecular target: T1, HMG-CoA reductase; experiment: Hepatic HMG-CoA reductase activity in chickens fed supplemented diets; format: in vivo, chicken; details: control diet + 50 ppm, 4 weeks
Method: as §3

Compound: CC(C)=CCC/C(C)=C/CC/C(C)=C/CC[C@]1(C)CCc2c(C)c(O)c(C)c(C)c2O1 [α-T3, α-tocotrienol]
- Cholesterol 7α-hydroxylase ([1]; 10.0 μg/mL): 2.12 pmol/min/mg
- Cholesterol 7α-hydroxylase, percentage of 0.0 μg/mL ([1]; 10.0 μg/mL): 91.8%
- Cholesterol 7α-hydroxylase ([1]; 20.0 μg/mL): 2.27 pmol/min/mg
- Cholesterol 7α-hydroxylase, percentage of 0.0 μg/mL ([1]; 20.0 μg/mL): 98.7%
- Cholesterol 7α-hydroxylase ([1]; 40.0 μg/mL): 2.34 pmol/min/mg
- Cholesterol 7α-hydroxylase, percentage of 0.0 μg/mL ([1]; 40.0 μg/mL): 101.3%
- APO A1, percentage of control (chickens [2]): 99.43%
- APO A1 in serum (chickens [2]): 139.6 mg/100 ml
- APO B in serum (chickens [2]): 29.30 mg/100 ml
- APO B, percentage of control (chickens [2]): 88.52%
- DL-Cholesterol/Total Cholesterol (chickens [2]): 0.61
- DL-Cholesterol/Total Cholesterol, percentage of control (chickens [2]): 104.30%
- Glucose in serum (chickens [2]): 216.90 mg/100 ml
- Glucose, percentage of control (chickens [2]): 96.70%
- HDL-Cholesterol in serum (chickens [2]): 80.47 ± 0.67 mg/dL
- HDL-Cholesterol, percentage of control (chickens [2]): 96.19%
- HDL-Cholesterol/LDL-Cholesterol (chickens [2]): 2.09
- HDL-Cholesterol/LDL-Cholesterol, percentage of control (chickens [2]): 110.40%
- LDL-Cholesterol in serum (chickens [2]): 47.97 ± 0.56 mg/dL
- LDL-Cholesterol, percentage of control (chickens [2]): 87.12%
- Total Cholesterol in serum (chickens [2]): 131.71 ± 1.08 mg/dL
- Total Cholesterol, percentage of control (chickens [2]): 92.25%
- Triglycerides in serum (chickens [2]): 68.04 mg/100 ml
- Triglycerides, percentage of control (chickens [2]): 91.91%
- IgG antibody titers in serum (chickens [3]): 1.00 Log 2
- IgM antibody titers in serum (chickens [3]): 6.60 ± 1.24 Log 2
- Total Ab titers in serum (chickens [3]): 7.10 ± 1.51 Log 2
- maximum reduction in activity of HMG-CoA reductase (HMG-CoA reductase [4]): 37.7%
- Fatty Acid Synthase (Fatty Acid Synthase; 10.0 μg/mL): 15.2 nmol/min/mg
- Fatty Acid Synthase, percentage of 0.0 μg/mL (Fatty Acid Synthase; 10.0 μg/mL): 88.4%
- Fatty Acid Synthase (Fatty Acid Synthase; 20.0 μg/mL): 14.3 nmol/min/mg
- Fatty Acid Synthase, percentage of 0.0 μg/mL (Fatty Acid Synthase; 20.0 μg/mL): 83.2%
- Fatty Acid Synthase (Fatty Acid Synthase; 40.0 μg/mL): 12.4 nmol/min/mg
- Fatty Acid Synthase, percentage of 0.0 μg/mL (Fatty Acid Synthase; 40.0 μg/mL): 72.1%
- Platelet Factor 4 (chickens [5]): 8.78 ng/mL
- Platelet Factor 4, percentage of control (chickens [5]): 67.07%
- Thromboxane B2 (chickens [5]): 21.63 pg/mL
- Thromboxane B2, percentage of control (chickens [5]): 83.71%
- Cholesterol 7α-Hydroxylase, percentage of control [6]: 104.60%
- Cholesterol 7α-hydroxylase [6]: 10.69 nmol/min/mg
- HMG-CoA Reductase, percentage of control (HMG-CoA reductase [7]): 89.43%

Compound: CC(C)=CCC/C(C)=C/CC/C(C)=C/CCC1(C)CCc2cc(O)cc(C)c2O1 (stereo not drawn) [δ-T3, δ-tocotrienol]
- APO A1, percentage of control (chickens [2]): 99.22%
- APO A1 in serum (chickens [2]): 139.30 mg/100 ml
- APO B in serum (chickens [2]): 27.30 mg/100 ml
- APO B, percentage of control (chickens [2]): 82.48%
- DL-Cholesterol/Total Cholesterol (chickens [2]): 0.65
- DL-Cholesterol/Total Cholesterol, percentage of control (chickens [2]): 111.30%
- Glucose in serum (chickens [2]): 205.30 mg/100 ml
- Glucose, percentage of control (chickens [2]): 91.53%
- HDL-Cholesterol in serum (chickens [2]): 77.78 ± 0.97 mg/dL
- HDL-Cholesterol, percentage of control (chickens [2]): 93.08%
- HDL-Cholesterol/LDL-Cholesterol (chickens [2]): 2.15
- HDL-Cholesterol/LDL-Cholesterol, percentage of control (chickens [2]): 141.80%
- LDL-Cholesterol in serum (chickens [2]): 36.14 ± 0.97 mg/dL
- LDL-Cholesterol, percentage of control (chickens [2]): 65.64%
- Total Cholesterol in serum (chickens [2]): 119.40 ± 1.41 mg/dL
- Total Cholesterol, percentage of control (chickens [2]): 83.63%
- Triglycerides in serum (chickens [2]): 60.50 mg/100 ml
- Triglycerides, percentage of control (chickens [2]): 81.72%
- IgG antibody titers in serum (chickens [3]): 1.00 Log 2
- IgM antibody titers in serum (chickens [3]): 8.25 ± 1.96 Log 2
- Total Ab titers in serum (chickens [3]): 8.67 ± 1.78 Log 2
- Platelet Factor 4 (chickens [5]): 8.23 ng/mL
- Platelet Factor 4, percentage of control (chickens [5]): 62.87%
- Thromboxane B2 (chickens [5]): 18.65 pg/mL
- Thromboxane B2, percentage of control (chickens [5]): 72.17%
- Cholesterol 7α-Hydroxylase, percentage of control [6]: 107.44%
- Cholesterol 7α-hydroxylase [6]: 10.98 nmol/min/mg
- HMG-CoA Reductase, percentage of control (HMG-CoA reductase [7]): 75.83%
